Test results reported in patent US20040072146A1, “Mechanism of mitochondrial membrane permeabilization by HIV-1 Vpr, mimetics of Vpr and methods of screening active molecules having the ability to alter and/or prevent and/or mimic the interaction of Vpr with ANT” (priority 2000, published 2004).

Experiments:
[1] = tested on: purified mitochondria; assay: Inner versus outer mitochondrial membrane permeabilization (NADH oxidation, cytochrome c oxidation); assay type: biochemical
Experimental: A. Respirometry performed after addition of NADH and Vpr52-96 (1 μM). Numbers along the traces are nmol of O2 consumed min^−1 mg^−1 protein.
B. Kinetics of Vpr52-96 induced inner membrane permeabilization to NADH and outer membrane permeabilization to reduced cytochrome c. Oxygen consumption was determined in the presence of 2 mM NADH (full squares) as in A (traces C-D) and cytochrome c (15 μM) oxidation (open circles) was spectrofluorometrically measured, as described Rustin et al., 1994). The 100% value of cytochrome c oxidation was determined by addition of 2.5 mM laurylmaltoside.
Oxygen consumption of purified mitochondria was measured as in FIG. 5 after addition of succinate+CCCP or NADH, as indicated.

[2] = biological target: T1, ANT-proteoliposomes (Rattus norvegicus, UniProt Q05962); assay: FITC-labeled Vpr52-96 binding onto ANT-liposomes and plain liposomes
T1 construct: ANT is purified from rat heart and reconstituted in liposomes; from tissue; host or cells: rat heart (ANT)
T1 sequence (Q05962 1-298): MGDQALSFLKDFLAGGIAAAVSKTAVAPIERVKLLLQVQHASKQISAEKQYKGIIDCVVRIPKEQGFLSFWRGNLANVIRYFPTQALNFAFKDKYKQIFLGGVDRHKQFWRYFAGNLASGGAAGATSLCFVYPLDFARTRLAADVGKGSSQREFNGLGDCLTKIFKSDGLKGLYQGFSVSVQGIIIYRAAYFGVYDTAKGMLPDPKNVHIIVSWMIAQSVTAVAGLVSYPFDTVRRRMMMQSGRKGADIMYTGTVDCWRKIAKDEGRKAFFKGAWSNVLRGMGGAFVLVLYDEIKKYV
Experimental: A. Dose-response curve of FITC-labeled Vpr52-96 binding onto ANT-liposomes and plain liposomes.
B. Binding of FITC-Vpr52-96 (2 μM) to plain liposomes, ANT-proteoliposomes, in the presence or absence of BA (50 μM).

[3] = tested on: purified mitochondria; assay: Respirometry of purified mitochondria, respiratory control; assay type: biochemical; details: 1 μM peptide, 10 min
Experimental: A. Oxygen consumption curves after addition of the indicated agents. Trace a: control mitochondria (no pretreatment). Trace b: mitochondria pretreated for 10 min with 1 μM Vpr52-96. Numbers along the traces are nmol of O2 consumed min^−1 mg^31 1 protein.
B. Respiratory control (RC) values calculated by dividing oxygen consumption in the presence of CCCP by that measured with oligomycin (determined as in A), 10 min after addition of 1 μM of Vpr-derived peptides (mean values of 3 determinations).

[4] = tested on: isolated mitochondria; assay: Electron microscopy of isolated mitochondria (matrix swelling); assay type: biochemical; details: 3 μM Vpr52-96, 5 or 15 min
Description: C. Ultrastructural effects of Vpr on isolated mitochondria.

[5] = tested on: purified mitochondria; assay: FITC-Vpr52-96 binding to purified mitochondria; details: 0.5 μM FITC-Vpr52-96
Experimental: Mitochondria were left unstained (insert in Co.) or exposed to the ΔΨm-insensitive mitochondrial dye MitoTracker® Green (75 nM), alone (MTG) or with 0.5 μM of FITC-Vpr52-96; green fluorescence), in combination with the ΔΨm-sensitive mitochondrial dye MitoTracker® Red (CMXRos; red Fluorescence) followed by cytofluorometric two-color analysis. Numbers indicate the percentage of mitochondria in each quadrant.
Mitochondria were incubated with the indicated inhibitors, and then exposed for 30 min at RT with 5 μM biotinylated Vpr52-96. Mitochondria were lysed either after incubation with biotinylated Vpr52-96 (upper panel) or lysed before (lower panel) with Tris/HCl as described in materials and methods. Biotinylated Vpr52-96 complexed with its mitochondrial ligands was retained on avidin-agarose and subjected to immunoblot detection of ANT.

[6] = biological target: T2, ANT (Rattus norvegicus, UniProt Q05962); assay type: binding; details: purified detergent-solubilized ANT
T2 construct: from tissue
Description: A Plasma surface resonance sensorgrams of the interaction of ANT with Vpr52-96, Vpr52-96[R73A, 80A] or an irrelevant control (Co).
B. Langmuir isotherm determined at different concentrations of ANT on sensorgrams corrected by substraction of the blank (sensorgrams obtained with Vpr52-96[R73A, 80A]).

[7] = biological target: T2, ANT; assay: Single channel recordings in planar lipid bilayers; assay type: biochemical
Experimental: FIG. 3 presents electrophysiological properties of Vpr52-96 and ANT in planar lipid bilayers. Current fluctuations of Vpr52-96 (80 nM, +150 mV), Vpr52-96(0.4 nM, +100 mV), ANT (1 nM, +110 mV) and Vpr52-96+ANT (0.4:1 nM, +115 mV) and associated histograms (right) of conductance levels are shown.
Current fluctuations of Vpr52-96 (80 nM, +150 mV), Vpr52-96 (0.4 nM, +100 mV), ANT (1 nM, +110 mV) and Vpr52-96+ANT (0.4:1 nM, 115 mV) after incorporation into synthetic membranes. Single channel recordings were performed using the “Tip-Dip” technique. The recordings shown are representative for at least three independent determinations.
B. Statistical analysis of conductances obtained in A. Results were expressed as current distributions at different voltages. Conductances (γ; in picosiemens, pS) are calculated by division of current by voltage.

[8] = biological target: T2, ANT; details: surface plasmon resonance, Jacotot et al. 2000; cited from earlier work

CC[C@H](C)[C@H](NC(=O)[C@H](C)NC(=O)[C@H](CCC(=O)O)NC(=O)[C@@H](NC(=O)CNC(=O)[C@H](C)NC(=O)[C@H](Cc1c[nH]c2ccccc12)NC(=O)[C@@H](NC(=O)[C@@H](N)CC(=O)O)[C@@H](C)O)C(C)C)C(=O)N[C@H](C(=O)N[C@@H](CCCNC(=N)N)C(=O)N[C@H](C(=O)N[C@@H](CC(C)C)C(=O)N[C@@H](CCC(N)=O)C(=O)N[C@@H](CCC(N)=O)C(=O)N[C@@H](CC(C)C)C(=O)N[C@@H](CC(C)C)C(=O)N[C@@H](Cc1ccccc1)C(=O)N[C@H](C(=O)N[C@@H](Cc1c[nH]cn1)C(=O)N[C@@H](Cc1ccccc1)C(=O)N[C@@H](CCCNC(=N)N)C(=O)N[C@H](C(=O)NCC(=O)N[C@@H](CS)C(=O)N[C@@H](CCCNC(=N)N)C(=O)N[C@@H](Cc1c[nH]cn1)C(=O)N[C@@H](CO)C(=O)N[C@@H](CCCNC(=N)N)C(=O)N[C@H](C(=O)NCC(=O)N[C@H](C(=O)N[C@H](C(=O)N[C@@H](CCCNC(=N)N)C(=O)N[C@@H](CCC(N)=O)C(=O)N[C@@H](CCCNC(=N)N)C(=O)N[C@@H](CCCNC(=N)N)C(=O)N[C@@H](C)C(=O)N[C@@H](CCCNC(=N)N)C(=O)N[C@@H](CC(N)=O)C(=O)NCC(=O)N[C@@H](C)C(=O)N[C@@H](CO)C(=O)N[C@@H](CCCNC(=N)N)C(=O)N[C@@H](CO)C(=O)O)[C@@H](C)O)C(C)C)[C@@H](C)CC)[C@@H](C)CC)[C@@H](C)CC)[C@@H](C)CC)[C@@H](C)CC [Vpr52-96]
order of inner and outer MMP [1]: causes inner MMP well before OM becomes permeable to exogenous cytochrome c | time to maximal NADH oxidation ([1]; Vpr52-96 1 μM, 2 mM NADH): 10 min | Vpr52-96 binding to membranes, ANT liposomes versus protein-free liposomes [2]: greatly facilitated in liposomes in which ANT has been reconstituted as compared to protein-free liposomes | effect on respiratory control (RC) [3]: exhibited a gross deficiency in respiratory control (RC) | respiratory control (RC) value ([3]; 5.3 in control mitochondria): 1.1 | ultrastructural effect on mitochondria [4]: exhibited matrix swelling before OM rupture became apparent | Vpr52-96 binding to mitochondria relative to ΔΨm loss [5]: binds mitochondria before inducing ΔΨm loss | binding of ANT to immobilized peptide (sensorgram) [6]: exhibits an increase of binding as a function of time and a positive signal at the start of the dissociation phase | conductance of channels formed by ANT and Vpr52-96 ([7]; Vpr52-96+ANT 0.4:1 nM): 190±2 pS | mean conductance of Vpr52-96-ANT channels without any further addition ([7]; as restated in Example 4): 190±2 | conductance of channels formed by Vpr52-96 alone ([7]; high doses (80 nM), no ANT): 55±2 pS | channel formation in planar lipid bilayers ([7]; low doses (<1 nM)): incapable of forming channels, unless ANT was present | affinity of Vpr C-terminus for purified ANT [8]: high affinity in the nanomolar range
